The values below come from PubChem BioAssay AID743151 (Broad Institute, 2013).

Each structure is given as a SMILES string. pIC50: −log10 of the molar value. Activity calls are given as the source filed them.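 The calls were made as follows: active = IC50 under 100 nM in each of the cell lines carrying a mutated TP53 gene; inactive = the rest.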

Experiment in all cases: viability loss in TP53-mutant tumour panel – cell-based, HeLa, COLO741, H2122, CellTiter-Glo, dry powder, dose response (AID 743151)
In general terms: In ATP-based viability assays light output follows the ATP content of the culture.

In assay [1] the test system is COLO741 TP53-mutant viability, CellTiter-Glo, 48 h. As to conditions: measured here: COLO741 viability IC50.
For assay [2], the system named is HeLa TP53-mutant viability, CellTiter-Glo, 48 h.
The subject of assay [3] is H2122 TP53-mutant viability, CellTiter-Glo, 48 h. As to conditions: measured here: H2122 viability IC50.

As for `C[C@@H]1CC(=O)NN=C1c1ccc(C2CCCCC2)cc1`, the pIC50 in assay [1] is 7.95; in assay [2], 8.14; in assay [3], 7.54.

For the compound `CCN(CC)c1ccc(C2=NNC(=O)CC2C)cc1[N+](=O)[O-]` (stereo unspecified), the pIC50 was 7.92 in assay [1], 8.18 in assay [2] and 7.87 in assay [3].

In the case of `C[C@@H]1CC(=O)NN=C1c1ccc(Cl)cc1`, the figures for the pIC50 in assay [1], in assay [2] and in assay [3] were 7.37, 7.49 and 7.10, respectively.

For the compound `CCN1N=C(c2ccc(N(CC)CC)cc2)[C@H](C)CC1=O`, the negative-log IC50 (pIC50) in assay [1] and in assay [3] was less than 5.00 each time. Moreover, the IC50 in assay [2] was > 10000 nM (inactive).

As for `C[C@@H]1CC(=O)NN=C1c1ccc(-c2cncnc2)cc1`, the pIC50 in assay [1] was 7.71; in assay [2], 7.90; in assay [3] it was 7.44.

Turning to `CC(=O)Nc1ccc(C2=NNC(=O)C[C@H]2C)cc1`, the pIC50 was 8.12 in assay [1], 8.31 in assay [2] and 7.90 in assay [3].

As for `C[C@@H]1CC(=O)NN=C1c1ccc(N2CCOCC2)c(F)c1`, the pIC50 is 8.54 in assay [1], 8.80 in assay [2] and 8.50 in assay [3].

`O=C1CN2Cc3c(ccc(Cl)c3Cl)N=C2N1`: the figures for the pIC50 in assay [1], in assay [2] and in assay [3] were 7.92, 8.12 and 7.77, respectively.

With `C[C@@H]1CC(=O)NN=C1c1ccc(F)c(F)c1`, the results for the pIC50 in assay [1], in assay [2] and in assay [3] were 7.48, 7.65 and 7.34, respectively.

Take `COc1cc2c(cc1OC)-c1cc(=Nc3c(C)cc(C)cc3C)n(C)c(=O)n1CC2`: the pIC50 in assay [1] and in assay [3] was less than 5.00 throughout. Moreover, the IC50 in assay [2] was > 10000 nM (inactive).

As for `C[C@@H]1CC(=O)NN=C1c1ccc(N2CCOCC2)cc1`, the pIC50 is 7.70 in assay [1], 7.88 in assay [2] and 7.52 in assay [3].

For the compound `C[C@H]1CC(=O)NN=C1c1ccc(N2CCOCC2)c(F)c1`, the pIC50 in assay [1] and in assay [3] was less than 5.00 each time. For the same compound, the IC50 in assay [2] was > 10000 nM (inactive).

By pIC50 is commonly meant the IC50 on a negative log10 scale, so that one unit is a factor of ten. By IC50 is commonly meant the midpoint of a concentration-inhibition curve.
